Measurements taken from ChEMBL document CHEMBL1811798, “Synthesis and evaluation of 2'-O-allyl substituted dinucleotide cap analog for mRNA translation” (Bioorg Med Chem, 2010).
Active and inactive are the calls of the source. No cut-off for these calls is given here.

Key:
[1] = tested on: Nucleic Acid; experiment: Capping efficiency on beta-actin mRNA using [alpha-32P]-ATP at 1.6 mM after 2 hrs by gel shift assay in presence of T7 RNA polymerase; type: nucleic-acid assay
[2] = tested on: HeLa; experiment: Translational efficiency bacteriophage T7 RNA polymerase expressed in human HeLa cells assessed as protein production using 5'-capped RAN after 16 hrs of post-transfection by luciferase reporter gene assay relative to standard cap analog; type: cell-based; conditions: Escherichia phage T7
[3] = tested on: Escherichia phage T7; experiment: Binding affinity to bacteriophage T7 RNA polymerase assessed as incorporation of compound into supercoiled mRNA transcript at 6 mM after 2 hrs
[4] = tested on: Nucleic Acid; experiment: Capping efficiency on beta-actin mRNA using [alpha-32P]-ATP at 1.6 mM after 2 hrs by HPLC analysis in presence of T7 RNA polymerase; type: nucleic-acid assay

SMILES: C=CCO[C@@H]1[C@H](O)[C@@H](COP(=O)(O)OP(=O)([O-])OP(=O)(O)OC[C@H]2O[C@@H](n3cnc4c(=O)[nH]c(N)nc43)[C@H](O)[C@@H]2O)O[C@H]1[n+]1cn(C)c2c(=O)[nH]c(N)nc21
- Activity [1]: 70%
- fold change (FC) [2]: 1.7
- Activity [3]: Active
- Activity [4]: Active
